We go through 4 compounds from patent US4604378A, “Basic V1 -vasopressin antagonists” (SmithKline Beckman Corporation, priority 1984, dated 1986).

The structures appear in SMILES notation. *1 amine or outer side, *2 acyl side, *3 side chain or, on linkers, in order; H or OH if unused. Where a SMILES comes first, the peptide text is derived from it. Bridges are numbered along the chain shown (N, C = ends). [ ]: non-standard residue; d: D form. The star is where a group is joined. X1 = CC(C)(CC(=O)[*:1])S[*:2]; NH(CH2)4NH2 = NCCCCN*; Mpa = O=C(O)CCS

Test [1] concerns the target T1, V2 -vasopressin receptors (Sus scrofa, UniProt P32307).
T1 construct: Medullary pig kidney tissue; from tissue; host or cells: medullary pig (hog) kidney tissue
As to the kind of experiment: V2-vasopressin receptor binding, inhibition of 3H-LVP binding, medullary pig kidney tissue. Here is the method: (§1) Antagonistic activity at the V1 -vasopressin receptors is determined in a protocol which measures the reversal of the vasopressin-induced contraction of rat thoracic aorta tissue. This is expressed as KB (nM) in the table below. Such anti-pressor activity is confirmed in a similar in vitro protocol using binding to the plasma membranes of rat liver. V2 -vasopressin antagonism is determined as receptor binding ability measured by inhibition of 3H-LVP binding (KB as nM), by inhibition of adenylate cyclase activation by vasopressin in the medullary tissue of hog kidneys (Ki as nM) or in vivo in the hydropenic rat protocol (ED300 μg/kg. These procedures are described in the literature: F. Stassen et al., J. Pharmacology and Experimental Therapeutics, 223 50 (1982); F. Stassen et al., lst International Conference on Diuretics, Miami, Fla., Mar. (1984). Antagonistic activity at oxytocin receptors is determined in the isolated rat uterus protocol: W. Sawyer, et al., Endocrinology 106 81 (1979); P. Melin, et al., J. of Endocrinology 88 173 (1981).
^a Medullary pig kidney tissue, […]

For a further test, the target named is T2, oxytocin receptors (Rattus norvegicus, UniProt P70536).
T2 construct: Rat uterus; from tissue; host or cells: isolated rat uterus
T2 sequence (P70536 1-388): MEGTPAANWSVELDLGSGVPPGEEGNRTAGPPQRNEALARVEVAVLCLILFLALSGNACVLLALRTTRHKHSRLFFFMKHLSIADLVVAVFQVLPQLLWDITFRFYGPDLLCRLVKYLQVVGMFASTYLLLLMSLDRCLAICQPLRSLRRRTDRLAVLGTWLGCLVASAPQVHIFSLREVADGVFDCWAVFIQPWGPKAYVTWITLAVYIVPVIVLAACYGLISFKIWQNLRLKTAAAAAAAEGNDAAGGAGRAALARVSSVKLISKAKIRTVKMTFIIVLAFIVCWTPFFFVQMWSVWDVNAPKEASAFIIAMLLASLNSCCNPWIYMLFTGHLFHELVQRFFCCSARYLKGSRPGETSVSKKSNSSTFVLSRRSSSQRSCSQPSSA
Briefly: Isolated rat uterus protocol, oxytocin antagonism. Type of test: cell-based. Conditions: read-out: Rat OXT KB. Here is the method:
as §1

For test [2], the target named is T3, V1 -vasopressin receptors (Rattus norvegicus, UniProt P30560).
T3 construct: Rat liver membrane; from tissue; host or cells: rat liver plasma membranes
T3 sequence (P30560 whole entry): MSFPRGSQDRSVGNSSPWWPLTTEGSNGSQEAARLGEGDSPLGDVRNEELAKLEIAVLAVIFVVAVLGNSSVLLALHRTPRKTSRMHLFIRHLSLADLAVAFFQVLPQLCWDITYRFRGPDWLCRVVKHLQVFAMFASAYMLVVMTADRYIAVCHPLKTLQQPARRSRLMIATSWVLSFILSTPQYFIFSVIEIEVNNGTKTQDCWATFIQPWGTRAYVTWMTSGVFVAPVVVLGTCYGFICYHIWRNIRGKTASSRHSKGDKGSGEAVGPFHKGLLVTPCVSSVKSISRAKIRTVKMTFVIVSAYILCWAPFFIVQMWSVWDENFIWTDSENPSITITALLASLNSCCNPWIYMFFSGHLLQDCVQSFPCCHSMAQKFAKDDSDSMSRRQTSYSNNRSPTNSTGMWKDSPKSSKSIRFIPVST
Briefly: Reversal of vasopressin-induced contraction of rat thoracic aorta tissue. The conditions noted are these: rat aortic ring tissue. It is filed as cell-based. On the procedure:
as §1
^c Rat aortic ring tissue, […]

T1 sequence (P32307 whole entry): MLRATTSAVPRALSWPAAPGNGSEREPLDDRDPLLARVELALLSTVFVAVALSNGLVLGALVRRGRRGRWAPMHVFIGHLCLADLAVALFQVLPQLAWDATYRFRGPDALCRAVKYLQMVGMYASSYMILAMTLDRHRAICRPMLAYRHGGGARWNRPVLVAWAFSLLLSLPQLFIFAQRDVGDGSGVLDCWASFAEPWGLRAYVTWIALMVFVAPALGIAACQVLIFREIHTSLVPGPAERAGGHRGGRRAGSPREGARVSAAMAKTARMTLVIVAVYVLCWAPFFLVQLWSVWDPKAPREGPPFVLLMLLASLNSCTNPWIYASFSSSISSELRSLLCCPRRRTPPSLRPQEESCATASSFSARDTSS

In the case of `COc1ccc(C[C@@H]2NC(=O)CC(C)(C)SSC[C@@H](C(=O)N3CCC[C@H]3C(=O)NCCCCN)NC(=O)[C@H](CC(N)=O)NC(=O)[C@H](CCC(N)=O)NC(=O)[C@H](Cc3ccccc3)NC2=O)cc1` [A] (Y(Me)FQNCP-{NH(CH2)4NH2}; linker N-5 via X1), the values for the Kb (in test [1]; on oxytocin receptors; in test [2]) were 8600 nM, 5.91 nM and 1.21 nM, respectively.
`CCOc1ccc(C[C@H]2NC(=O)CCSSC[C@@H](C(=O)N3CCC[C@H]3C(=O)NCCCCN)NC(=O)[C@H](CC(N)=O)NC(=O)[C@H]([C@@H](C)O)NC(=O)[C@H]([C@@H](C)CC)NC2=O)cc1` [C] ([Mpa][dY](Et)ITNCP-{NH(CH2)4NH2}; disulfide 1-6): the Kb in test [1] was determined as 5700 nM; at oxytocin receptors it was 1.6 nM.
Taken in the same sequence, the figures for `CCOc1ccc(C[C@@H]2NC(=O)CCSSC[C@@H](C(=O)N[C@@H](CCCNC(=N)N)C(=O)NCC(N)=O)NC(=O)[C@H](CC(N)=O)NC(=O)[C@H]([C@@H](C)O)NC(=O)[C@H]([C@@H](C)CC)NC2=O)cc1` [D] ([Mpa]Y(Et)ITNCRG-NH2; disulfide 1-6) were 4100 nM and 17.7 nM.
In the same order, the values of `CCOc1ccc(C[C@@H]2NC(=O)CCSSC[C@@H](C(=O)N[C@@H](CCCNC(=N)N)C(N)=O)NC(=O)[C@H](CC(N)=O)NC(=O)[C@H]([C@@H](C)O)NC(=O)[C@H]([C@@H](C)CC)NC2=O)cc1` [E] ([Mpa]Y(Et)ITNCR-NH2; disulfide 1-6) are 1600 nM and 11.4 nM.
